According to US8894993B2, “Mitochondria-targeted antioxidants” (Natreon Inc., priority 2006, dated 2014):

Columns and labels:
Type in all cases: in vivo, Swiss albino mice
[1] = tested on: Superoxide dismutase (SOD) activity in liver; assay: Superoxide dismutase activity in liver of mice after restraint stress; conditions: 25 mg/Kg p.o. 7 days, control 0.6
Method: (§1) Swiss albino mice (20±2 g) were fed orally with—(a) 3-OH-DBP and (b) 3,8-(OH)2-DBP (each 25 mg/Kg b.w. per day, for 7 days). In case of the controls, only vehicle (0.8% carboxymethyl cellulose in water) was administered for seven days of the experiment. All the animals of all the groups were subjected to restraint stress (for 60 minutes) on the seventh day of the experiment, 2 hours after drug administration, according to a published method [Figueiredo, H. F., Bodie, B. L., Tauchi, M., Dolgas, C. M. and Herman, J. P. 2003. Endocrinology, 144, 5249-5258]. The model was selected in the present experiment, because restraint stress is a widely used model of acute oxidative stress. Immediately after being exposed to stress, the animals were sacrificed, blood was collected for analysis by HPLC of ATP and related nucleotides [Smolenska, Z., Kaznowska, Z., Zarowny, D., Simmonds, H. A. and Smolenski, R. T. 1999. […] AEC (adenylate energy charge) was calculated according to the method of Atkinson and Walton [Atkinson D E & Walton G M, Adenosine triphosphate conservation in metabolic regulation, J Biol Chem, 242 (1967) 3239] and TAN (total adenine nucleotides) was calculated according to an established method [Spencer M K & Katz A, Role of glycogen in control of glycolysis and IMP formation in human muscle during exercise, Am J Physiol, 260 (1991) E859]. […]

[2] = tested on: Blood levels of ATP and energy related indices; assay: Blood ATP and energy related indices in mice after forced swimming stress
Method: Swiss albino mice (20±2 g) were fed orally with—(a) 3,8-(OH)2-DBP and (b) 3-OH-DBP (each 25 mg/Kg b.w.), per day, for 7 days. In case of the controls, only vehicle (0.8% carboxymethyl cellulose in water) was administered for seven days of the experiment. The animals were subjected to ‘forced swimming’ for 30 minutes on the 7th day of the experiment [Pliakas, A. M., Carlson, R. R., Neve, R. L., Konradi, C., Nestler, E. J. and Carlezon, W. A. 2001. J. Neurosci., 21(18), 7397-7403]. Immediately after the swimming, blood was collected from all the animals for analysis of ATP and related nucleotides by HPLC [Smolenska, Z., Kaznowska, Z., Zarowny, D., Simmonds, H. A. and Smolenski, R. T. 1999. Rheumatology, 38, 997-1002; Komarova, S. V., Mosharov, E. V., Vitvitsky, V. M. and Ataullakhanov, F. I. 1999. Blood Cell Mol. Dis., 25(13), 170-179; Marquardt, D. L., Gruber, H. E. and Wasserman, S. I. 1984. Proc. Natl. Acad. Sci., 81, 6192-6196]. AEC (adenylate energy charge) was calculated according to the method of Atkinson and Walton [Atkinson D E & Walton G M, Adenosine triphosphate conservation in metabolic regulation, J Biol Chem, 242 (1967) 3239] and TAN (total adenine nucleotides) was calculated according to an established method [Spencer M K & Katz A, Role of glycogen in control of glycolysis and IMP formation in human muscle during exercise, Am J Physiol, 260 (1991) E859].

[3] = tested on: Blood levels of ATP and energy related indices; assay: Blood ATP and energy related indices in mice after restraint stress; conditions: 25 mg/Kg p.o. 7 days
Method: Swiss albino mice (20±2 g) were fed orally with—(a) 3-OH-DBP and (b) 3,8-(OH)2-DBP (each 25 mg/Kg b.w. per day, for 7 days). In case of the controls, only vehicle (0.8% carboxymethyl cellulose in water) was administered for seven days of the experiment. All the animals of all the groups were subjected to restraint stress (for 60 minutes) on the seventh day of the experiment, 2 hours after drug administration, according to a published method [Figueiredo, H. F., Bodie, B. L., Tauchi, M., Dolgas, C. M. and Herman, J. P. 2003. Endocrinology, 144, 5249-5258]. The model was selected in the present experiment, because restraint stress is a widely used model of acute oxidative stress. Immediately after being exposed to stress, the animals were sacrificed, blood was collected for analysis by HPLC of ATP and related nucleotides [Smolenska, Z., Kaznowska, Z., Zarowny, D., Simmonds, H. A. and Smolenski, R. T. 1999. Rheumatology, 38, 997-1002; Komarova, S. V., Mosharov, E. V., Vitvitsky, V. M. and Ataullakhanov, F. I. 1999. Blood Cell Mol. Dis., 25(13), 170-179; Marquardt, D. L., Gruber, H. E. and Wasserman, S. I. 1984. Proc. Natl. Acad. Sci., 81, 6192-6196], and liver was collected for measurement of superoxide dismutase and catalase activities [Zielinski, S, and Pörtner, H. 2000. Comparative Biochem. Physiol. Part B, 125, 147-[60]. AEC (adenylate energy charge) was calculated according to the method of Atkinson and Walton [Atkinson D E & Walton G M, Adenosine triphosphate conservation in metabolic regulation, J Biol Chem, 242 (1967) 3239] and TAN (total adenine nucleotides) was calculated according to an established method [Spencer M K & Katz A, Role of glycogen in control of glycolysis and IMP formation in human muscle during exercise, Am J Physiol, 260 (1991) E859].

[4] = tested on: Catalase activity in liver; assay: Catalase activity in liver of mice after restraint stress; conditions: 25 mg/Kg p.o. 7 days, control 3.9
Method: as §1

O=c1oc2cc(O)ccc2c2ccccc12 [3-OH-DBP, 3-hydroxydibenzo-α-pyrone]
SOD activity in liver [1]: 0.91 U/gm tissue | content of ATP, AEC values and ATP/ADP ratio (in blood), in words ([2]; albino mice engaged in forced swimming): significantly improved | ATP ([2]; blood, forced swimming, 25 mg/Kg p.o. 7 days, mean ± SEM of 6, control 0.60 ± 0.01): 0.72 ± 0.03 µM | TAN ([2]; blood, forced swimming, 25 mg/Kg p.o. 7 days, mean ± SEM of 6, control 0.79 ± 0.01): 0.90 ± 0.04 µM | AEC ([2]; blood, forced swimming, 25 mg/Kg p.o. 7 days, mean ± SEM of 6, control 0.86 ± 0.003): 0.89 ± 0.002 | ATP/ADP ratio ([2]; blood, forced swimming, 25 mg/Kg p.o. 7 days, mean ± SEM of 6, control 3.84 ± 0.09): 4.82 ± 0.09 | ADP ([3]; mean ± SEM of 6, control 0.14 ± 0.02): 0.09 ± 0.01 µM | ATP ([3]; mean ± SEM of 6, control 0.67 ± 0.03): 0.66 ± 0.04 µM | TAN ([3]; mean ± SEM of 6, control 0.76 ± 0.03): 0.79 ± 0.05 µM | AEC ([3]; mean ± SEM of 6, control 0.89 ± 0.01): 0.90 ± 0.01 | ATP/ADP ratio ([3]; mean ± SEM of 6, control 4.90 ± 0.32): 7.04 ± 0.38 | Catalase activity in liver [4]: 3.5 U/mg tissue
